# Results: US20240284907A1, “NOVEL DERIVATIVES OF NON-CODED AMINO ACIDS AND THEIR USE AS HERBICIDES” (FortePhest LTD., priority 2021, published 2024)
# Assays:
# Assay type in all cases: in vivo
# Sinapis = assay: Herbicidal effect on potted weeds, plant development score; conditions: soil application 1 mg/pot, scale 0 (dead plants) to 5 (healthy, as Control)
# Procedure: (§1) Weed seeds were sawn in 0.3-liter pots, containing medium-heavy clay-loam soil from organic fields (55% clay, 23% silt, 20% sand, 2% organic matter, pH 7.1). The experiment was conducted in a completely randomized design. Each treatment was replicated 3 times (3 pots). Each compound was typically tested on crops (Corn, Wheat, Soy, Cotton, Oat, Chickpea) and weeds (Amaranth, Chenopodium, Lentils, Sinapis, Silybum).
# (§2) The herbicides were applied at dose from 0 (control) to 5 mg/pot. The treatment was performed at the day of sawn (pre-emergence treatment). Then the pots were transferred to a mesh house 24 hours after herbicide application and were sprinkler irrigated to field capacity of the soil. Alternatively, the herbicides were applied on grown plants at stage 2-3 true leaves (post-emergence treatment).
# (§3) The plants were grown in the mesh house during the entire experiment. Plant development at 6, 12, 19, 26 and 32 days after application (DAA) were evaluated on a scale of 0 to 5, in which 0 represents dead plants and 5 represents healthy plants similar or not different from Control. In the context of the invention, the herbicidal effect was expressed as a score calculated as an average of assessments of plants vigor, height, and leaf color.
# Amaranth = assay: as above; conditions: soil application 1 mg/pot, scale 0 (dead plants) to 5 (healthy, as Control)
# Procedure: as §1, §2, §3
# Lentils = assay: as above; conditions: soil application 1 mg/pot, scale 0 (dead plants) to 5 (healthy, as Control)
# Procedure: as §1, §2, §3
# Chenopodium = assay: as above; conditions: soil application 1 mg/pot, scale 0 (dead plants) to 5 (healthy, as Control)
# Procedure: as §1, §2, §3
# Silybum = assay: as above; conditions: soil application 1 mg/pot, scale 0 (dead plants) to 5 (healthy, as Control)
# Procedure: as §1, §2, §3
# [1] = system: Romaine lettuce (Lactuca sativa L.) plants; assay: Post-emergence herbicidal activity on potted Romaine lettuce plants (soil or foliar application); conditions: lettuce at 2 to 3 leaves, two weeks after treatment
# Outline: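 Potted lettuce at the 2-3 leaf stage received compound in 0.1% aqueous Silwet, up to 0.0001%, applied to soil (1 ml/pot) or sprayed on foliage (0.1 ml/pot), 20 plants per concentration. Visual scoring and aboveground wet weight after two weeks; growth inhibition from median weights versus control.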
# [2] = system: Seeds of Lettuce R. (Super-Jericho); assay: Filter paper bioassay with lettuce seeds: germination and early plant development, Minimal Effective Concentration (MEC); conditions: lettuce seeds on filter paper, 0 to 1 mmol/l, visually assessed after 6 days
# Outline: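 Visual scoring on day 6 of radicle and shoot growth gives the MEC, the lowest dose deviating from control (no germination or malformation). Seeds (lettuce Super-Jericho, 10 per plate) sat on filter paper with 0–1 mmol/l aqueous compound, 48 h dark then 4 days 6/18 dark/light, in at least two repeats.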
# [3] = system: Seeds of Lettuce R. (Super-Jericho); assay: Filter paper bioassay with lettuce seeds: germination, Fully Effective Concentration (FEC); conditions: lowest concentration mostly preventing lettuce seed germination, assessed after 6 days
# Text: Materials: Seeds of Lettuce R. (Super-Jericho, non-sterilized) were obtained from Ben Shahar Moshe Ltd., 99% purity. The test compounds listed in the Table 2 below were synthetized de novo or purchased from different vendors.
# Filter Paper Bioassays with Lettuce seeds: The protocol is following Bertin et al. 2009 and Movellan et al. 2014 with specified modifications as described below.
# Seeds were placed on Whatman no. 1 filter paper (Whatman, Middlesex, U.K.) in Petri dishes (10 seeds per plate) with 2.0 ml of aqueous solution of a test material in concentration ranged from 0 (control) to 1 mmol/l were placed in a tray tilted at 45°. The trays were kept in dark for 48 hours and then transferred to the growth chamber with 6/18 dark/light cycle for 4 days. Each experiment was performed at least with two repeats.
# The development of plants' radicle and shoots were visually assessed 6 days after the beginning of the test to determine Fully Effective Concentration (FEC) of a test material. In the context of the invention, FED is defined as the lowest concentration level of a test material that mostly preventing seeds germination.
# [4] = system: Romaine lettuce (Lactuca sativa L.) plants; assay: Comparison of NAA and DNAA: growth inhibition of potted Romaine lettuce plants; conditions: two weeks after treatment
# Procedure: The tests were performed on Romaine lettuce (Lactuca sativa L.) plants at the stage 2 to 3 leaves. The plants were grown in mini-pots packed with soil, dimensions 2×2×5 cm, one plant per mini-pot. Test compounds were dissolved in 0.1% aqueous solution water solution of Silwet adjuvant. The test material where applied in rate 0 (Control), 0.01, 0.05, and 0.5 mg/pot. The test compounds were applied on soil or foliar with airbrush (0.1 ml per pot). Each concentration was tested on 20 plants. Two weeks after the treatment the herbicidal effects of the respective test material were visually evaluated (aboveground part and roots. Then the aboveground part of the plants was neatly cut and weighed (wet weight) to assess the growth inhibition caused by the test compound. The growth inhibition (GI) was calculated as following: […]
# Where Mt and Mc are median wet weight of treated and control plants, respectively.
Molecule,"Average Herbicidal Effect, Sinapis (Sinapis; post-emergence)","Average Herbicidal Effect, Amaranth (Amaranth; post-emergence)","Average Herbicidal Effect, Lentils (Lentils; post-emergence)","Average Herbicidal Effect, Chenopodium (Chenopodium; post-emergence)","Average Herbicidal Effect, Silybum (Silybum; post-emergence)",Score (test material causing more than 85% of Growth Inhibition or irreversible plant damage) ([1]; soil application),"Score (activity score of Minimal Effective Concentration, MEC) [2]","Average Herbicidal Effect, Sinapis (Sinapis; pre-emergence)","Average Herbicidal Effect, Amaranth (Amaranth; pre-emergence)","Average Herbicidal Effect, Lentils (Lentils; pre-emergence)","Average Herbicidal Effect, Chenopodium (Chenopodium; pre-emergence)","Average Herbicidal Effect, Silybum (Silybum; pre-emergence)",Score (test material causing more than 85% of Growth Inhibition or irreversible plant damage) ([1]; foliar application),FEC (Fully Effective Concentration) [3] [mM],"Herbicidal effect, growth application (%) ([4]; foliar application, 0.05 mg/pot)","Herbicidal effect, growth application (%) ([4]; foliar application, 0.50 mg/pot)","Herbicidal effect, growth application (%) ([4]; soil application, 0.01 mg/pot)","Herbicidal effect, growth application (%) ([4]; soil application, 0.05 mg/pot)","Herbicidal effect, growth application (%) ([4]; soil application, 0.50 mg/pot)"
"ethyl 2-(6-bromopyridin-2-yl)-2,2-difluoroacetate [compound 6640]",3.0,4.0,2.0,1.0,3.0,moderate (0.5),Strong (0.01 mM),–,–,–,–,–,–,–,–,–,–,–,–
"CCOC(=O)Cc1cccc(Br)n1 [compound 6635, ethyl 2-(6-bromopyridin-2-yl)acetate]",2.0,4.0,0.0,3.0,2.5,moderate (0.5),Moderate (0.1 mM),3.0,4.0,0.0,0.5,3.0,–,–,–,–,–,–,–
"2,2-difluoro-2-[6-(trifluoromethyl)pyridin-2-yl]acetic acid [compound 6651]",2.0,0.5,–,0.5,2.0,moderate (0.5),Strong (0.01 mM),–,5.0,0.0,1.5,4.0,–,–,–,–,–,–,–
"CCOC(=O)Cc1cc(Cl)sc1Cl [compound 5668, ethyl (2,5-dichlorothiophen-3-yl)acetate]",–,–,–,–,–,strong (0.01 to 0.05),–,5.0,3.0,4.0,2.0,5.0,–,–,–,–,–,–,–
"CCOC(=O)C(F)(F)c1cc(Cl)sc1Cl [compound 5643, ethyl(2,5-dichlorothiophen-3-yl)(difluoro)acetate]",5.0,4.0,4.0,5.0,3.0,–,Moderate (0.1 mM),5.0,0.5,5.0,4.0,0.0,–,–,–,–,–,–,–
"O=C(O)C(F)(F)c1csc(C(F)(F)F)n1 [compound 5679, 2,2-difluoro-2-[2-(trifluoromethyl)-1,3-thiazol-4-yl]acetic acid]",1.0,1.0,0.5,1.0,2.0,strong (0.01 to 0.05),very strong,2.0,4.5,0.0,1.5,2.0,strong (0.01 to 0.05),–,–,–,–,–,–
"2-(2,5-dichloro-1,3-thiazol-4-yl)acetic acid [compound 5637]",0.0,3.3,1.7,2.2,1.0,strong (0.01 to 0.05),Strong (0.01 mM),3.5,1.5,0.0,1.5,0.5,moderate (0.5),0.050,–,–,–,–,–
"O=C(O)Cc1cc(Cl)sc1Cl [compound 586, 2-(2,5-dichlorothiophen-3-yl) acetic acid]",0.0,3.3,3.2,–,3.7,moderate (0.5),strong,5.0,2.0,0.5,1.5,1.0,moderate (0.5),0.050,–,–,–,–,–
"2-(2-chlorothiophen-3-yl)-2,2-difluoroacetic acid [compound 5623]",–,–,–,–,–,strong (0.01 to 0.05),Strong (0.01 mM),–,–,–,–,–,strong (0.01 to 0.05),1.000,91,97,34,79,98
"OCC(F)(F)c1cccc(Br)n1 [compound 6643, 2-(6-bromopyridin-2-yl)-2,2-difluoroethan-1-ol]",4.0,1.0,0.0,4.0,2.0,moderate (0.5),Moderate (0.1 mM),4.0,0.0,0.0,3.0,2.5,–,–,–,–,–,–,–
